Tests used:
Conditions in all cases: in vivo
Rattus norvegicus [1] = test: AUC (0 to 6 hrs) as total radioactivity in Sprague-Dawley rat plasma at 100 mg/kg, po administered as single oral dose by HPLC analysis; assay type: ADME, organism-based
Cynomolgus monkey [2] = test: AUC (0 to 12 hrs) as total radioactivity in cynomolgus monkey plasma at 10 mg/kg, po administered as single oral dose by HPLC analysis; assay type: ADME, organism-based, Macaca fascicularis
Homo sapiens [3] = test: AUC (0 to 12 hrs) as total radioactivity in human plasma at 800 mg, po administered as single oral dose by HPLC analysis; assay type: ADME, organism-based
[4] = Drug recovery in Sprague-Dawley rat urine at 100 mg/kg, po administered as single dose via gavage measured during 0 to 168 hrs by liquid scintillation counting; assay type: ADME, organism-based
[5] = Drug recovery in Sprague-Dawley rat feces at 100 mg/kg, po administered as single dose via gavage measured during 0 to 168 hrs by liquid scintillation counting; assay type: ADME, organism-based
Rattus norvegicus [6] = test: Total drug recovery in Sprague-Dawley rat at 100 mg/kg, po administered as single dose via gavage measured during 0 to 168 hrs by liquid scintillation counting; assay type: ADME, organism-based
[7] = Drug recovery in bile duct-cannulated rat urine at 100 mg/kg, po administered as single dose via gavage measured during 0 to 48 hrs by liquid scintillation counting; assay type: ADME, organism-based
[8] = Drug recovery in bile duct-cannulated rat bile at 100 mg/kg, po administered as single dose via gavage measured during 0 to 48 hrs by liquid scintillation counting; assay type: ADME, organism-based
[9] = Drug recovery in bile duct-cannulated rat feces at 100 mg/kg, po administered as single dose via gavage measured during 0 to 48 hrs by liquid scintillation counting; assay type: ADME, organism-based
Rattus norvegicus [10] = test: Total drug recovery in bile duct-cannulated rat at 100 mg/kg, po administered as single dose via gavage measured during 0 to 48 hrs by liquid scintillation counting; assay type: ADME, organism-based
[11] = Drug recovery in cynomolgus monkey urine at 10 mg/kg, po administered as single dose via gavage measured during 0 to 168 hrs by liquid scintillation counting; assay type: ADME, organism-based, Macaca fascicularis
[12] = Drug recovery in cynomolgus monkey feces at 10 mg/kg, po administered as single dose via gavage measured during 0 to 168 hrs by liquid scintillation counting; assay type: ADME, organism-based, Macaca fascicularis
Cynomolgus monkey [13] = test: Total drug recovery in cynomolgus monkey at 10 mg/kg, po administered as single dose via gavage measured during 0 to 168 hrs by liquid scintillation counting; assay type: ADME, organism-based, Macaca fascicularis
[14] = Drug recovery in bile duct-cannulated cynomolgus monkey urine at 10 mg/kg, po administered as single dose via gavage measured during 0 to 72 hrs by liquid scintillation counting; assay type: ADME, organism-based, Macaca fascicularis
Cynomolgus monkey [15] = test: Cmax as total radioactivity in cynomolgus monkey plasma treated at 10 mg/kg, po administered as single dose via gavage by liquid scintillation counting; assay type: ADME, organism-based, Macaca fascicularis
Cynomolgus monkey [16] = test: Tmax of total radioactivity in cynomolgus monkey plasma treated at 10 mg/kg, po administered as single dose via gavage by liquid scintillation counting; assay type: ADME, organism-based, Macaca fascicularis
Cynomolgus monkey [17] = test: AUC (0 to t) as total radioactivity in cynomolgus monkey plasma treated at 10 mg/kg, po administered as single dose via gavage by liquid scintillation counting; assay type: ADME, organism-based, Macaca fascicularis
Homo sapiens [18] = test: Cmax as total radioactivity in human plasma treated at 800 mg, po administered as single dose […] by mass spectrometry; assay type: ADME, organism-based
Homo sapiens [19] = test: Tmax of total radioactivity in human plasma treated at 800 mg, po administered as single dose […] by mass spectrometry; assay type: ADME, organism-based
Homo sapiens [20] = test: AUC (0 to t) as total radioactivity in human plasma treated at 800 mg, po administered as single dose […] by mass spectrometry; assay type: ADME, organism-based
[21] = Drug recovery in bile duct-cannulated cynomolgus monkey bile at 10 mg/kg, po administered as single dose via gavage measured during 0 to 72 hrs by liquid scintillation counting; assay type: ADME, organism-based, Macaca fascicularis
[22] = Drug recovery in bile duct-cannulated cynomolgus monkey feces at 10 mg/kg, po administered as single dose via gavage measured during 0 to 72 hrs by liquid scintillation counting; assay type: ADME, organism-based, Macaca fascicularis
Cynomolgus monkey [23] = test: Total drug recovery in bile duct-cannulated cynomolgus monkey at 10 mg/kg, po administered as single dose via gavage measured during 0 to 72 hrs by liquid scintillation counting; assay type: ADME, organism-based, Macaca fascicularis
[24] = Drug recovery in human urine at 800 mg, po administered as single dose via gavage measured during 0 to 288 hrs by liquid scintillation counting; assay type: ADME, organism-based
[25] = Drug recovery in human feces at 800 mg, po administered as single dose via gavage measured during 0 to 288 hrs by liquid scintillation counting; assay type: ADME, organism-based
Homo sapiens [26] = test: Total drug recovery in human at 800 mg, po administered as single dose […] measured during 0 to 288 hrs by liquid scintillation counting; assay type: ADME, organism-based
Rattus norvegicus [27] = test: Cmax as total radioactivity in Sprague-Dawley rat plasma treated at 100 mg/kg, po administered as single dose via gavage by liquid scintillation counting; assay type: ADME, organism-based
Rattus norvegicus [28] = test: Tmax of total radioactivity in Sprague-Dawley rat plasma treated at 100 mg/kg, po administered as single dose via gavage by liquid scintillation counting; assay type: ADME, organism-based
Rattus norvegicus [29] = test: AUC (0 to t) as total radioactivity in Sprague-Dawley rat plasma treated at 100 mg/kg, po administered as single dose via gavage by liquid scintillation counting; assay type: ADME, organism-based

In the case of Cc1cc2c(F)c(Oc3n[14cH]nn4cc(OC[C@@H](C)OC(=O)[C@H](C)N)c(C)c34)ccc2[nH]1, the AUC (Rattus norvegicus [1]) is reported as 139766 ugequiv/l.hr, the AUC (Cynomolgus monkey [2]) is reported as 69315 ugequiv/l.hr and the AUC (Homo sapiens [3]) is reported as 65627.4 ugequiv/l.hr. For the same molecule, the Radiolabel recovery [4] was 9.46%, the Radiolabel recovery [5] was 83.58% and the Radiolabel recovery (Rattus norvegicus [6]) was 93.68%. It also gave a Radiolabel recovery [7] of 7.33%, a Radiolabel recovery [8] of 78.35% and a Radiolabel recovery [9] of 3.31%. It also gave a Radiolabel recovery (Rattus norvegicus [10]) of 88.99%, a Radiolabel recovery [11] of 10.3% and a Radiolabel recovery [12] of 76.31%. For the same molecule, the Radiolabel recovery (Cynomolgus monkey [13]) was 89.79%, the Radiolabel recovery [14] was 3.56% and the Cmax (Cynomolgus monkey [15]) was 9700 ng/mL. The Tmax (Cynomolgus monkey [16]) was 2 h, the AUCt (Cynomolgus monkey [17]) was 90.3 µg·h/mL and the Cmax (Homo sapiens [18]) was 9400 ng/mL. The Tmax (Homo sapiens [19]) was 1 h, the AUCt (Homo sapiens [20]) was 203.8 µg·h/mL and the Radiolabel recovery [21] was 47.66%. The Radiolabel recovery [22] was 26.41%, the Radiolabel recovery (Cynomolgus monkey [23]) was 81.43% and the Radiolabel recovery [24] was 12.18%. It also gave a Radiolabel recovery [25] of 81.54%, a Radiolabel recovery (Homo sapiens [26]) of 93.72% and a Cmax (Rattus norvegicus [27]) of 35200 ng/mL. For the same molecule, the Tmax (Rattus norvegicus [28]) was 2 h and the AUCt (Rattus norvegicus [29]) was 250 µg·h/mL.

Reference: ChEMBL document CHEMBL3526109 (Drug Metab Dispos, 2011)
